Measurements taken from the supplement of paper PMC10307832.

compound: C(C(=O)C(=O)O)Br [Bromopyruvate] + COc1cc2c(Oc3ccc(NC(=O)C4(C(=O)Nc5ccc(F)cc5)CC4)cc3F)ccnc2cc1OCCCN1CCOCC1 [Foretinib] (partner 0.25 µM); experiment: relative viability (nuclei count vs DMSO), 5 days (fraction); higher = more cells survive; details: first compound 1 µM
Summary of the method: (§1)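 The day after seeding in 1536-well plates, lung cancer cell lines were treated by pin tool with a single drug, or with a fixed anchor-drug dose together with five library-drug doses (not always all listed) in √10 steps. After 5 days, a combined fix-and-stain solution (final 0.05% Triton X-100, 1% formaldehyde, 1 ug/ml Hoechst) was added. Nuclei counted on 4× images gave relative viability as treated counts over vehicle counts, reported as the median of duplicate plates.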

Row | Cell Line | relative viability
1 | NCI-H2126 | 1.17
2 | H3255 | 0.902
3 | LOU-NH91 | 0.945
4 | NCI-H2170 | 0.961
5 | NCI-H3122 | 0.985
6 | HOP-62 | 1.12
7 | LU99A | 0.834
8 | BEN | 0.975
9 | HARA | 0.91
10 | HCC-78 | 0.55
11 | NCI-H441 | 1.08
12 | LCLC-97TM1 | 0.843
13 | A-427 | 0.983
14 | NCI-H460 | 0.928
15 | NCI-H727 | 0.9
16 | NCI-H1734 | 0.888
17 | NCI-H2405 | 1.08
18 | NCI-H1395 | 0.975
19 | 201T | 1.15
20 | NCI-H1915 | 1.03
21 | HCC-827 | 1.05
22 | LXF-289 | 1.02
23 | NCI-H2347 | 0.925
24 | NCI-H650 | 1.04
25 | CAL-12T | 1.14
26 | NCI-H1651 | 0.728
27 | EPLC-272H | 0.777
28 | NCI-H23 | 0.895

same assay, conditions: first compound 3.162 µM

Row | Cell Line | relative viability
29 | NCI-H2126 | 1.39
30 | H3255 | 0.806
31 | LOU-NH91 | 0.903
32 | NCI-H2170 | 1.01
33 | NCI-H3122 | 1.04
34 | HOP-62 | 1.17
35 | LU99A | 0.81
36 | BEN | 0.668
37 | HARA | 0.868
38 | HCC-78 | 0.533
39 | NCI-H441 | 1.02
40 | LCLC-97TM1 | 0.916
41 | A-427 | 1.21
42 | NCI-H460 | 1.01
43 | NCI-H727 | 1.08
44 | NCI-H1734 | 0.923
45 | NCI-H2405 | 1.07
46 | NCI-H1395 | 0.838
47 | 201T | 1.08
48 | NCI-H1915 | 1.08
49 | HCC-827 | 1.02
50 | LXF-289 | 0.997
51 | NCI-H2347 | 1.01
52 | NCI-H650 | 1.03
53 | CAL-12T | 1.05
54 | NCI-H1651 | 0.902
55 | EPLC-272H | 0.718
56 | NCI-H23 | 0.851

same assay, conditions: first compound 10 µM

Row | Cell Line | relative viability
57 | NCI-H2126 | 1.2
58 | H3255 | 0.93
59 | LOU-NH91 | 0.999
60 | NCI-H2170 | 1.07
61 | NCI-H3122 | 1.01
62 | HOP-62 | 1.12
63 | LU99A | 0.812
64 | BEN | 0.542
65 | HARA | 0.984
66 | HCC-78 | 0.589
67 | NCI-H441 | 0.986
68 | LCLC-97TM1 | 0.917
69 | A-427 | 1.18
70 | NCI-H460 | 1.15
71 | NCI-H727 | 0.728
72 | NCI-H1734 | 1.03
73 | NCI-H2405 | 1.08
74 | NCI-H1395 | 1.14
75 | 201T | 1.29
76 | NCI-H1915 | 1.09
77 | HCC-827 | 1.02
78 | LXF-289 | 0.965
79 | NCI-H2347 | 1.22
80 | NCI-H650 | 1.16
81 | CAL-12T | 1.09
82 | NCI-H1651 | 0.904
83 | EPLC-272H | 0.81
84 | NCI-H23 | 0.983

same assay, conditions: first compound 31.62 µM

Row | Cell Line | relative viability
85 | NCI-H2126 | 1.26
86 | H3255 | 0.938
87 | LOU-NH91 | 0.92
88 | NCI-H2170 | 0.995
89 | NCI-H3122 | 0.915
90 | HOP-62 | 0.95
91 | LU99A | 0.773
92 | BEN | 0.741
93 | HARA | 0.824
94 | HCC-78 | 0.539
95 | NCI-H441 | 0.984
96 | LCLC-97TM1 | 0.965
97 | A-427 | 0.799
98 | NCI-H460 | 1.02
99 | NCI-H727 | 0.93
100 | NCI-H1734 | 0.807
101 | NCI-H2405 | 1.04
102 | NCI-H1395 | 1.03
103 | 201T | 1.21
104 | NCI-H1915 | 1
105 | HCC-827 | 1.08
106 | LXF-289 | 1.01
107 | NCI-H2347 | 0.721
108 | NCI-H650 | 1.01
109 | CAL-12T | 1.07
110 | NCI-H1651 | 0.849
111 | EPLC-272H | 0.688
112 | NCI-H23 | 0.885

same assay, conditions: first compound 100 µM

Row | Cell Line | relative viability
113 | NCI-H2126 | 1.31
114 | H3255 | 0.922
115 | LOU-NH91 | 0.984
116 | NCI-H2170 | 0.966
117 | NCI-H3122 | 0.917
118 | HOP-62 | 0.815
119 | LU99A | 0.846
120 | BEN | 0.591
121 | HARA | 0.93
122 | HCC-78 | 0.532
123 | NCI-H441 | 0.947
124 | LCLC-97TM1 | 1.02
125 | A-427 | 0.885
126 | NCI-H460 | 1
127 | NCI-H727 | 0.802
128 | NCI-H1734 | 0.824
129 | NCI-H2405 | 1.04
130 | NCI-H1395 | 1.01
131 | 201T | 1.29
132 | NCI-H1915 | 1.12
133 | HCC-827 | 1.08
134 | LXF-289 | 1.04
135 | NCI-H2347 | 0.982
136 | NCI-H650 | 0.948
137 | CAL-12T | 1.06
138 | NCI-H1651 | 0.91
139 | EPLC-272H | 0.888
140 | NCI-H23 | 0.296

compound: C(C(=O)C(=O)O)Br [Bromopyruvate] + Cc1cc(Nc2cc(N3CCN(C)CC3)nc(Sc3ccc(NC(=O)C4CC4)cc3)n2)n[nH]1 [Tozasertib] (partner 0.1 µM); experiment: as above; details: first compound 1 µM
Summary of the method: as §1

Row | Cell Line | relative viability
141 | NCI-H2126 | 0.881
142 | H3255 | 0.613
143 | LOU-NH91 | 0.729
144 | NCI-H2170 | 0.689
145 | NCI-H3122 | 0.381
146 | HOP-62 | 0.39
147 | LU99A | 0.344
148 | BEN | 0.556
149 | HARA | 0.13
150 | HCC-78 | 0.375
151 | NCI-H441 | 0.597
152 | LCLC-97TM1 | 0.195
153 | A-427 | 0.22
154 | NCI-H460 | 0.432
155 | NCI-H727 | 0.593
156 | NCI-H1734 | 0.243
157 | NCI-H2405 | 0.806
158 | NCI-H1395 | 0.757
159 | 201T | 0.916
160 | NCI-H1915 | 0.438
161 | HCC-827 | 0.375
162 | LXF-289 | 0.184
163 | NCI-H2347 | 0.69
164 | NCI-H650 | 0.656
165 | CAL-12T | 0.362
166 | NCI-H1651 | 0.634
167 | EPLC-272H | 0.257
168 | NCI-H23 | 0.347

same assay, conditions: first compound 3.162 µM

Row | Cell Line | relative viability
169 | NCI-H2126 | 0.858
170 | H3255 | 0.771
171 | LOU-NH91 | 0.643
172 | NCI-H2170 | 0.708
173 | NCI-H3122 | 0.378
174 | HOP-62 | 0.386
175 | LU99A | 0.253
176 | BEN | 0.558
177 | HARA | 0.122
178 | HCC-78 | 0.404
179 | NCI-H441 | 0.614
180 | LCLC-97TM1 | 0.206
181 | A-427 | 0.216
182 | NCI-H460 | 0.485
183 | NCI-H727 | 0.745
184 | NCI-H1734 | 0.247
185 | NCI-H2405 | 0.779
186 | NCI-H1395 | 0.788
187 | 201T | 0.954
188 | NCI-H1915 | 0.455
189 | HCC-827 | 0.391
190 | LXF-289 | 0.179
191 | NCI-H2347 | 0.534
192 | NCI-H650 | 0.756
193 | CAL-12T | 0.589
194 | NCI-H1651 | 0.718
195 | EPLC-272H | 0.372
196 | NCI-H23 | 0.388

same assay, conditions: first compound 10 µM

Row | Cell Line | relative viability
197 | NCI-H2126 | 0.825
198 | H3255 | 0.686
199 | LOU-NH91 | 0.654
200 | NCI-H2170 | 0.798
201 | NCI-H3122 | 0.468
202 | HOP-62 | 0.381
203 | LU99A | 0.285
204 | BEN | 0.426
205 | HARA | 0.0899
206 | HCC-78 | 0.481
207 | NCI-H441 | 0.605
208 | LCLC-97TM1 | 0.212
209 | A-427 | 0.176
210 | NCI-H460 | 0.426
211 | NCI-H727 | 0.644
212 | NCI-H1734 | 0.307
213 | NCI-H2405 | 0.723
214 | NCI-H1395 | 0.834
215 | 201T | 0.99
216 | NCI-H1915 | 0.445
217 | HCC-827 | 0.386
218 | LXF-289 | 0.213
219 | NCI-H2347 | 0.715
220 | NCI-H650 | 0.804
221 | CAL-12T | 0.242
222 | NCI-H1651 | 0.665
223 | EPLC-272H | 0.241
224 | NCI-H23 | 0.361

same assay, conditions: first compound 31.62 µM

Row | Cell Line | relative viability
225 | NCI-H2126 | 0.879
226 | H3255 | 0.702
227 | LOU-NH91 | 0.685
228 | NCI-H2170 | 0.761
229 | NCI-H3122 | 0.417
230 | HOP-62 | 0.339
231 | LU99A | 0.233
232 | BEN | 0.499
233 | HARA | 0.13
234 | HCC-78 | 0.311
235 | NCI-H441 | 0.615
236 | LCLC-97TM1 | 0.182
237 | A-427 | 0.162
238 | NCI-H460 | 0.424
239 | NCI-H727 | 0.591
240 | NCI-H1734 | 0.244
241 | NCI-H2405 | 0.804
242 | NCI-H1395 | 0.718
243 | 201T | 1.02
244 | NCI-H1915 | 0.444
245 | HCC-827 | 0.421
246 | LXF-289 | 0.152
247 | NCI-H2347 | 0.479
248 | NCI-H650 | 0.714
249 | CAL-12T | 0.294
250 | NCI-H1651 | 0.701
251 | EPLC-272H | 0.325
252 | NCI-H23 | 0.291

same assay, conditions: first compound 100 µM

Row | Cell Line | relative viability
253 | NCI-H2126 | 0.783
254 | H3255 | 0.829
255 | LOU-NH91 | 0.672
256 | NCI-H2170 | 0.868
257 | NCI-H3122 | 0.382
258 | HOP-62 | 0.351
259 | LU99A | 0.325
260 | BEN | 0.402
261 | HARA | 0.102
262 | HCC-78 | 0.536
263 | NCI-H441 | 0.565
264 | LCLC-97TM1 | 0.128
